Results from article PMC5303821, “Major sulfonate transporter Soa1 in Saccharomyces cerevisiae and considerable substrate diversity in its fungal family” (Nature Communications, 2017).
Blank lines part the entries; values can stand above or below the molecule they belong to.

Columns and labels:
Soa1 (YIL166C) = biological target: T1, Soa1 (YIL166C) (Saccharomyces cerevisiae, UniProt P40445); assay: growth rate of sul1 sul2 deletion strain (Monod fit), not direct uptake; format: cell-based; details: cell growth constant, not transport Km
T1 construct: full-length, native SOA1 locus, in sulfur-starved S. cerevisiae cells
T1 sequence (P40445 1-542): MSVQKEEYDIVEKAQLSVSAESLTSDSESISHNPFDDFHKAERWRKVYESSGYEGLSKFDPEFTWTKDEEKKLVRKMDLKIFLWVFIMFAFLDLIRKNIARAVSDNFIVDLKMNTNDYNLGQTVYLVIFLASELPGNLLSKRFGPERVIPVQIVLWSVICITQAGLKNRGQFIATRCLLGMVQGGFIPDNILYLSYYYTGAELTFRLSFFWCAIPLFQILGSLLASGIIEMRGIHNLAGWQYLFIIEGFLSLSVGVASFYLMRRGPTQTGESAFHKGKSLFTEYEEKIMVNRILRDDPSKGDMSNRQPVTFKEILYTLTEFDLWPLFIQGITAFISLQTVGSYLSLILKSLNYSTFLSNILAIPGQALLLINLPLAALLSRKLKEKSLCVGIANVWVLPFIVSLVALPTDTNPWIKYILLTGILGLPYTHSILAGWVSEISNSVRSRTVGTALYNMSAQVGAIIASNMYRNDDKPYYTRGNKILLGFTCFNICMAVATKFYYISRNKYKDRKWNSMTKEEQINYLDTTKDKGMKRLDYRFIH

[1] = substrate: O=S(=O)(O)O; assay: radiolabelled uptake in sulfur-starved cells; format: cell-based, Aspergillus nidulans; details: pH 6.5 Bis-Tris, 30 °C, 1 min uptake, labelled compound ([35S]), H+ symport, sul1 sul2 soa1 deletion background

- Ks (half-velocity constant for growth) (Soa1 (YIL166C); pH 6.5, sulfite as sole sulfur source): 67.4 ± 8.3 µM
Molecule: O=S(O)O [sulfite]

- Ks (half-velocity constant for growth) (Soa1 (YIL166C); pH 6.5, thiosulfate as sole sulfur source): 75.8 ± 6.0 µM
Molecule: O=S(=O)(O)S [thiosulfate]

B1: AstA (Aspergillus nidulans) (protein)
chain: MADYKSTNPTVENKDDVAVPEYVIDWTLEEETKAKRKLDLMIMPILTLGFFCLQLDRGNMANAITDNFMEDVGINQDQFNVGQQMLSLGIVLTEIPSNMILYRVGPGKWLTLQLFLFGIVSTFQAFQRGYGAFIATRFLLGITESGFIPGGLWTLSTWYTRDETAKRVMIFYFGNQIGQASAKLLAYGILHMRGVGGQSGWFWLFALMGSFTVFSGFIFGFFLLDSFKNPHSTFLPKMSRFTERELHILQTRVLLDDPMKGKKKRKIGLGAFKRAFTDWRIWVHFLITLSNNGPQRAFDTYAPSIVTSFGFGRLVSNAMAAVGLFLQVPVSFAFSWVSDHYNRRGETVMLGFFCHLLGYIFNRTFTDVNLRGVRYFGVVWTQTFGTFSHPLNIAWLSLTCKDSEQRALAMAGVIMNANIAGIYGAQIFRSDDKPLYRRGFSVALSVLAVGLVLAIVRYVDTMIHRRRKLQAVEDGSEQDTDADHKLT
notes: full-length, codon-optimized synthetic gene in SOA1 locus of S. cerevisiae sul1 sul2 soa1 deletion strain
- Km [1]: 7.50 ± 0.53 µM
